Measurements published in patent publication US4215069A, “Arylthiovinylcyclopropanecarboxylate intermediates” (FMC Corporation, priority 1979, dated 1980).

Assays:
Format in all cases: in vivo
[1] = tested on: milkweed bug (Oncopeltus faciatus [Dallas]); test: Initial contact activity against milkweed bug (percent kill); conditions: 72 hours exposure, read-out: Percent Kill MWB, initial activity
Protocol: (§1) The test compound was dissolved in a small amount of acetone, and the acetone solution was dispersed in water containing one drop of isooctylphenyl polyethoxyethanol to make a solution having 1250 ppm (w/w) active ingredient. Aliquots of this solution were diluted with an appropriate amount of water to provide solutions containing various concentrations of active ingredient. Test organisms and techniques were as follows: the activity against Mexican bean beetle (Epilachna varivestis Muls.) and southern armyworm (Spodoptera eridania [Cram.]) was evaluated by dipping the leaves of pinto bean plants into the test solution and infesting the leaves with the appropriate immature-form insects when the foliage had dried. The activity against the pea aphid (Acyrthosiphon pisum [Harris]) was evaluated on broad bean plants whose leaves were dipped before infestation with adult aphids. The activity against twospotted spider mites (Tetranychus urticae Koch) was evaluated on pinto bean plants whose leaves were dipped after infestation with adult mites. The activity against the milkweed bug (Oncopeltus faciatus [Dallas]) was evaluated by spraying the test solutions into glass dishes or jars containing the adult insects. Following application of the compound and infestation the tests were maintained in a holding room at 80° F. and 50% relative humidity for an exposure period of 72 hours. At the end of this time the dead and living insects or mites were counted and the percent kill was calculated. Results of these tests are summarized in Table I. Most of the compounds tested were active against all the insects.

[2] = tested on: Mexican bean beetle (Epilachna varivestis Muls.); test: Initial contact activity against Mexican bean beetle (percent kill); conditions: 72 hours exposure, read-out: Percent Kill MBB, initial activity
Protocol: as §1

[3] = tested on: southern armyworm (Spodoptera eridania [Cram.]); test: Initial contact activity against southern armyworm (percent kill); conditions: 72 hours exposure, read-out: Percent Kill AW, initial activity
Protocol: as §1

[4] = tested on: pea aphid (Acyrthosiphon pisum [Harris]); test: Initial contact activity against pea aphid (percent kill); conditions: 72 hours exposure, read-out: Percent Kill PA, initial activity
Protocol: as §1

[5] = tested on: twospotted spider mites (Tetranychus urticae Koch); test: Initial contact activity against twospotted spider mite (percent kill); conditions: 72 hours exposure, read-out: Percent Kill SM, initial activity
Protocol: as §1

Structure (SMILES) | mortality at 78 ppm [1] | mortality at 312 ppm [1] | mortality at 1250 ppm [1] | mortality at 20 ppm [2] | mortality at 78 ppm [2] | mortality at 312 ppm [2] | mortality at 78 ppm [3] | mortality at 312 ppm [3] | mortality at 1250 ppm [3] | mortality at 78 ppm [4] | mortality at 312 ppm [4] | mortality at 1250 ppm [4] | mortality at 78 ppm [5] | mortality at 312 ppm [5] | mortality at 1250 ppm [5]
CC1(C)C(C=CSc2ccc(F)cc2)C1C(=O)OCc1cccc(Oc2ccccc2)c1 (mixture of isomers) [Example 5, 3-phenoxybenzyl cis,trans-3-[2-(E,Z)-(4-fluorophenylthio)ethenyl]-2,2-dimethylcyclopropanecarboxylate] | 0% | 5% | 15% | 33% | 35% | 95% | 0% | 0% | 7% | 0% | 45% | 35% | 0% | 0% | 0%
CC1(C)C(C=CSc2ccc(F)cc2)C1C(=O)OC(C#N)c1cccc(Oc2ccccc2)c1 (mixture of isomers) [Example 6, α-cyano-3-phenoxybenzyl cis,trans-3-[2-(E,Z)-(4-fluorophenylthio)ethenyl]-2,2-dimethylcyclopropanecarboxylate] | 5% | 38% | 100% | 68% | 94% | 100% | 0% | 0% | 56% | 0% | 10% | 100% | 0% | 0% | 0%
CC1(C)C(C=C(Cl)Sc2ccccc2)C1C(=O)OC(c1cccc(Oc2ccccc2)c1)C(F)(F)F (mixture of isomers) [Example 7, α-trifluoromethyl-3-phenoxybenzyl cis,trans-3-[2-(E,Z)-chloro-2-phenylthioethenyl]-2,2-dimethylcyclopropanecarboxylate] | 5% | 32% | 100% | 90% | 100% | 100% | 0% | 0% | 0% | 94% | 100% | 100% | – | – | 62%
CC1(C)C(C=C(Cl)Sc2ccc(F)cc2)C1C(=O)OC(C#N)c1cccc(Oc2ccccc2)c1 (mixture of isomers) [Example 8, α-cyano-3-phenoxybenzyl cis,trans-3-[2-(E,Z)-chloro-2-(4-fluorophenylthio)ethenyl]-2,2-dimethylcyclopropanecarboxylate] | 75% | 100% | 100% | 100% | 100% | 100% | 40% | 80% | 90% | 46% | 94% | 93% | – | – | 100%
CC1(C)C(C=C(Cl)Sc2ccc(Cl)cc2)C1C(=O)OCc1cccc(Oc2ccccc2)c1 (mixture of isomers) [Example 9, 3-phenoxybenzyl cis,trans-3-[2-(E,Z)-chloro-2-(4-chlorophenylthio)ethenyl]-2,2-dimethylcyclopropanecarboxylate] | 0% | 70% | 90% | 100% | 100% | 100% | 0% | 0% | 20% | 71% | 100% | 100% | – | – | 0%
